Laboratory results taken from publication PMC5296257 (Bioorganic & medicinal chemistry letters, 2017).

Tests used:
[1] = tested on: C/EBP-homologous protein (CHOP); conditions: cited from earlier work
[2] = tested on: T. brucei bloodstream form (BSF); test: T. brucei bloodstream form parasite viability; type: cell-based, Trypanosoma brucei; conditions: SI = IMR90 EC50/parasite EC50
[3] = Mammalian cytotoxicity on non-immortalized IMR90 cells; type: cell-based; conditions: human
[4] = tested on: L. amazonensis promastigote form parasites; test: L. amazonensis promastigote viability; type: cell-based; conditions: SI = IMR90 EC50/parasite EC50
[5] = tested on: T. brucei BSF 90-13 parasites; test: Annexin V-FITC labeling; type: cell-based; conditions: BSF trypanosomes, 6 h exposure at compound's EC50 value; control line 463

| SMILES | mammalian CHOP activity [1] | T. brucei selectivity index, SI [2] | EC50 [3] | L. amazonensis selectivity index, SI [4] | Annexin-V labeling, relative fluorescence median signal [5] |
| --- | --- | --- | --- | --- | --- |
| CC1(C)CCN(S(=O)(=O)c2ccc(NC(=O)c3ccc(C(F)(F)F)o3)cc2)CC1 [Compound 20] | no mammalian CHOP activity | > 3 | > 25 µM | > 2 | – |
| CC1(C)CCN(S(=O)(=O)c2cccc(NC(=O)c3cccc([N+](=O)[O-])c3)c2)CC1 [Compound 28] | – | > 2 | > 25 µM | > 8 | – |
| O=C(Nc1ccc(S(=O)(=O)N2CCC(O)CC2)cc1)c1ccc([N+](=O)[O-])o1 [Compound 7] | – | > 81 | > 25 µM | > 6 | – |
| O=C(Nc1ccc(S(=O)(=O)c2ccccc2)cc1)c1ccc([N+](=O)[O-])o1 [Compound 13] | – | > 227 | > 25 µM | > 6 | – |
| O=C(Nc1ccc(S(=O)(=O)N2CCC3(CCCCC3)CC2)cc1)c1ccc([N+](=O)[O-])o1 [Compound 6] | – | > 833 | > 25 µM | > 17 | – |
| O=C(Nc1cccc(S(=O)(=O)N2CCOCC2)c1)c1ccc([N+](=O)[O-])o1 [Compound 29] | – | > 17 | > 25 µM | > 28 | – |
| Cc1ccc(C(=O)Nc2ccc(S(=O)(=O)N3CCOCC3)cc2)o1 [Compound 17] | – | – | > 25 µM | – | – |
| O=C(Nc1ccc(S(=O)(=O)N2CCOCC2)cc1)c1ccc([N+](=O)[O-])cc1 [Compound 18] | – | – | > 25 µM | – | – |
| N=C1CCN(S(=O)(=O)c2ccc(NC(=O)c3ccc([N+](=O)[O-])o3)cc2)CC1 [Compound 10] | – | > 34 | > 25 µM | > 2 | – |
| CC1(C)CCN(S(=O)(=O)c2cccc(NC(=O)c3ccc([N+](=O)[O-])o3)c2)CC1 [Compound 26] | – | > 78 | > 25 µM | > 250 | – |
| CC1(C)CCN(S(=O)(=O)c2cccc(NC(=O)c3ccc([N+](=O)[O-])s3)c2)CC1 [Compound 25] | – | > 556 | > 25 µM | > 19 | – |
| O=C(Nc1ccc(S(=O)(=O)N2CCOCC2)cc1)c1ccc([N+](=O)[O-])s1 [Compound 21] | – | > 417 | > 25 µM | > 19 | – |
| O=C(Nc1ccc(S(=O)(=O)N2CCC3(CCCCC3)CC2)cc1)c1ccc([N+](=O)[O-])s1 [Compound 24] | – | > 1250 | > 25 µM | > 250 | – |
| O=C(Nc1ccc(S(=O)(=O)N2CCOCC2)cc1)c1ccco1 [Compound 14] | – | – | > 25 µM | – | – |
| O=C(Nc1ccc(S(=O)(=O)N2CCCCC2)cc1)c1ccc([N+](=O)[O-])o1 [Compound 2] | – | >114 | > 25 µM | > 2 | – |
| O=C(Nc1ccc(S(=O)(=O)N2CCOCC2)cc1)c1ccc([N+](=O)[O-])o1 [Compound 1] | – | > 54 | > 25 µM | > 8 | – |
| O=C(Nc1ccc(S(=O)(=O)N2CCOCC2)cc1)c1ccccc1 [Compound 16] | – | – | > 25 µM | – | – |
| O=C(Nc1ccc(S(=O)(=O)N2CCOCC2)cc1)c1cccs1 [Compound 15] | – | – | > 25 µM | – | – |
| CC(C)(C)C1CCN(S(=O)(=O)c2ccc(NC(=O)c3ccc([N+](=O)[O-])s3)cc2)CC1 [Compound 23] | – | > 833 | > 25 µM | > 250 | – |
| CC1CCN(S(=O)(=O)c2ccc(NC(=O)c3ccc([N+](=O)[O-])o3)cc2)CC1 [Compound 3] | – | > 208 | > 25 µM | > 3 | – |
| O=C(Nc1ccc(S(=O)(=O)C2=CCOC=C2)cc1)c1ccc([N+](=O)[O-])o1 [Compound 12] | – | > 47 | > 25 µM | > 83 | – |
| CC1(C)CCN(S(=O)(=O)c2ccc(NC(=O)c3ccc([N+](=O)[O-])o3)cc2)CC1 [Compound 4] | – | > 278 | > 25 µM | > 89 | – |
| CC(C)(C)C1CCN(S(=O)(=O)c2ccc(NC(=O)c3ccc([N+](=O)[O-])o3)cc2)CC1 [Compound 5] | – | > 833 | > 25 µM | > 18 | 1225 |
| O=C(Nc1ccc(S(=O)(=O)N2CCC(F)CC2)cc1)c1ccc([N+](=O)[O-])o1 [Compound 9] | – | > 60 | > 25 µM | > 3 | – |
| CC1(C)CCN(S(=O)(=O)c2cccc(NC(=O)c3ccco3)c2)CC1 [Compound 27] | – | > 5 | > 25 µM | > 21 | – |
| CC1(C)CCN(S(=O)(=O)c2ccc(NC(=O)c3ccc([N+](=O)[O-])s3)cc2)CC1 [Compound 22] | – | > 2500 | > 25 µM | > 250 | – |
| O=C(Nc1ccc(S(=O)(=O)N2CCC(Cl)CC2)cc1)c1ccc([N+](=O)[O-])o1 [Compound 8] | – | > 313 | > 25 µM | > 3 | – |
| O=C(Nc1ccc(S(=O)(=O)C2CCCCC2)cc1)c1ccc([N+](=O)[O-])o1 [Compound 11] | – | > 51 | > 25 µM | > 16 | – |
| CC1(C)CCN(S(=O)(=O)c2ccc(NC(=O)c3cccc([N+](=O)[O-])c3)cc2)CC1 [Compound 19] | no mammalian CHOP activity | > 4 | > 25 µM | > 2 | – |
